Laboratory results reported in patent US11971413B2, “Peptoid, and its preparation method and use” (BEIJING BOE TECHNOLOGY DEVELOPMENT CO., LTD., priority 2019, dated 2024).
Where a SMILES comes first, the peptide text is derived from it. [ ]: non-standard residue; d: D form. ξ: configuration not given here. N(CH2CH2COOH)Gly = O=C(O)CCNCC(=O)O; Gly(N-CH2CH2OH) = O=C(O)CNCCO; Nleu = CC(C)CNCC(=O)O; Nlys = NCCCCNCC(=O)O; ξC = NC(CS)C(=O)O

Experiments:
[1] = test system: Huh7 cell line with high expression of an EpCAM protein; assay: Cell-level imaging with fluorescently labeled peptoid molecular probe, laser confocal microscopy, Huh7 cells; type: cell-based; details: probe incubated at 4° C. for 30 min, confocal 100× oil objective
Protocol: (§1) The specific steps for cell-level imaging using a fluorescently labeled molecular probe with a peptoid were as follows: • (1) Cell culture and passage: The cell models were an Huh7 cell line with high expression of an EpCAM protein and a human embryonic kidney 293T cell line with low expression of EpCAM (Shanghai Biological Technology Co., Ltd. enzyme research); Huh7 and 293T cells were cultured in a constant temperature incubator (5% CO2) at 37° C. with RPMI1640 medium and DMEM/High glucose medium containing 10% fetal bovine serum and 1% penicillin and streptomycin, respectively; • (2) When the degree of cell fusion reached more than 90%, the cells were passaged. […]

[2] = test system: human embryonic kidney 293T cell line with low expression of EpCAM; assay: Cell-level imaging with fluorescently labeled peptoid molecular probe, laser confocal microscopy, 293T control cells; type: cell-based; details: 293T cells (low EpCAM, control group), probe incubated at 4° C. for 30 min, confocal 100× oil objective
Protocol: as §1

CC(C)CNCC(=O)N(CCCCN)CC(=O)N(CCO)CC(=O)N(CCC(=O)O)CC(=O)N(CCCCN)CC(=O)N(CCCCN)CC(=O)NC(CS)C(N)=O (centres unmarked) [Example 1] (H-[Nleu][Nlys][Gly(N-CH2CH2OH)][N(CH2CH2COOH)Gly][Nlys][Nlys][ξC]-NH2)
FITC green fluorescence on the cell membrane [1]: Significant green fluorescence | FITC green fluorescence on the cell membrane [2]: weak green fluorescence or no green fluorescence
